Assay [1] has as its target T1, CHEK1 (Homo sapiens, UniProt O14757).
T1 sequence (O14757 1-476): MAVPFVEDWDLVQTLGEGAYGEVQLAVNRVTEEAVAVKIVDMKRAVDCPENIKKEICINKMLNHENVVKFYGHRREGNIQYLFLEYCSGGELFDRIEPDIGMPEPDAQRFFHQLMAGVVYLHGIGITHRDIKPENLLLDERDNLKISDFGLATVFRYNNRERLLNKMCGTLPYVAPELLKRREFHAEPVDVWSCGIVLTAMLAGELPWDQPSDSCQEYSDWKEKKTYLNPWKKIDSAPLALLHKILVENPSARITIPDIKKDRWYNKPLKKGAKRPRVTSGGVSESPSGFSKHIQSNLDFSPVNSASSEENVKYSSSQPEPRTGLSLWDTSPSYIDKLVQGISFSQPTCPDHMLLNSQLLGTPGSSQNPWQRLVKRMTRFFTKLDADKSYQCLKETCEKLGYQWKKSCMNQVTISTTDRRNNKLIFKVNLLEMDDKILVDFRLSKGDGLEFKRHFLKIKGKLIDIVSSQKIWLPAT
In words: Kinase selectivity screen CHEK1. The following applies: read-out: % inhibition of CHEK1.

Assay [2] concerns the target MYLK (Homo sapiens, UniProt Q15746). In words: Kinase selectivity screen MYLK. As to conditions: read-out: % inhibition of MYLK.
The target in assay [3] is PTK6 (Homo sapiens, UniProt Q13882). In words: Kinase selectivity screen PTK6. As to conditions: read-out: % inhibition of PTK6.
Assay [4] addresses PAK1 (Homo sapiens, UniProt Q13153). In words: Kinase selectivity screen PAK1. The following applies: read-out: % inhibition of PAK1.
In assay [5] the target is CDK6/CCND3 (Homo sapiens, UniProt Q00534). In words: Kinase selectivity screen CDK6/CCND3. The following applies: read-out: % inhibition of CDK6/CCND3.
Assay [6] addresses PRKCA (Homo sapiens, UniProt P17252). In words: Kinase selectivity screen PRKCA. As to conditions: read-out: % inhibition of PRKCA.
Assay [7] addresses RPS6KA1 (Homo sapiens, UniProt Q15418). In words: Kinase selectivity screen RPS6KA1. As to conditions: read-out: % inhibition of RPS6KA1.
In assay [8] the target is T2, SGK1 (Homo sapiens, UniProt O00141).
T2 sequence (O00141 1-431): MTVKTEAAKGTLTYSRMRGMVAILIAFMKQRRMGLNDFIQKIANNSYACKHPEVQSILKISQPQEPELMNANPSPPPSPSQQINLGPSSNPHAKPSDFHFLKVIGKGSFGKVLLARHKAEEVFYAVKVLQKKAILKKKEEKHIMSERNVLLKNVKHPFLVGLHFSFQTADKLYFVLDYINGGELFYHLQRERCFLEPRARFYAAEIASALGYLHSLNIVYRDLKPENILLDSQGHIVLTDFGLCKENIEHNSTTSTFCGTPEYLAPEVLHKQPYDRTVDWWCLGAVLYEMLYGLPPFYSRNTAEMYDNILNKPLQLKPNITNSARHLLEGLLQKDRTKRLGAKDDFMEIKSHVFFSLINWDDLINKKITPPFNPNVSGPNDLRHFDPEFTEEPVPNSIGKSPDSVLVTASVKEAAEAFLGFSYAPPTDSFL
In words: Kinase selectivity screen SGK1. The following applies: read-out: % inhibition of SGK1.

The target in assay [9] is T3, STK17A (Homo sapiens, UniProt Q9UEE5).
T3 sequence (Q9UEE5 1-414): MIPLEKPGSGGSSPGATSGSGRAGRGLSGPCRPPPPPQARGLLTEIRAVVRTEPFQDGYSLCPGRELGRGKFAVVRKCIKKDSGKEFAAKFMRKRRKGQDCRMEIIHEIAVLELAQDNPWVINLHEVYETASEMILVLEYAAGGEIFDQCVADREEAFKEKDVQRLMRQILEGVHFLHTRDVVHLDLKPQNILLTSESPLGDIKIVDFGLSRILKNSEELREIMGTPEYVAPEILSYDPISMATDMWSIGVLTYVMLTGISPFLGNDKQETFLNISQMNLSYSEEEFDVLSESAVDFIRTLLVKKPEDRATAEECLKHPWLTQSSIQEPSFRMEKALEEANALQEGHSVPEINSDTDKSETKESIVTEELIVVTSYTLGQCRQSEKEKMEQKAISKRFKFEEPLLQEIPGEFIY
In words: Kinase selectivity screen STK17A. As to conditions: read-out: % inhibition of STK17A.

Sequence of PTK6 (Q13882 whole entry, species assumed): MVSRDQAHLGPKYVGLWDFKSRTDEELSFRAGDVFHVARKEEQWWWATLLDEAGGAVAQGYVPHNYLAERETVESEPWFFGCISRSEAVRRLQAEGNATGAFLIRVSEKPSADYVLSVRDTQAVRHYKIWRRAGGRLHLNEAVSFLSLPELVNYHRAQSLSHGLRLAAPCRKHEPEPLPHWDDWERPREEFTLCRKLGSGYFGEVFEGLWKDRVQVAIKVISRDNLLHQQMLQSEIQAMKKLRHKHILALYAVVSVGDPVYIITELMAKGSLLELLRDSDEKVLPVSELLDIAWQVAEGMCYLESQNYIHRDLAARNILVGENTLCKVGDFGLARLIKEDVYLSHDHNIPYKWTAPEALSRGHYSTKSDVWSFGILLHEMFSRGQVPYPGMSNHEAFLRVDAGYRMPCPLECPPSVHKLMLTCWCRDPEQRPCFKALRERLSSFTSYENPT
Sequence of CDK6/CCND3 (Q00534 whole entry, species assumed): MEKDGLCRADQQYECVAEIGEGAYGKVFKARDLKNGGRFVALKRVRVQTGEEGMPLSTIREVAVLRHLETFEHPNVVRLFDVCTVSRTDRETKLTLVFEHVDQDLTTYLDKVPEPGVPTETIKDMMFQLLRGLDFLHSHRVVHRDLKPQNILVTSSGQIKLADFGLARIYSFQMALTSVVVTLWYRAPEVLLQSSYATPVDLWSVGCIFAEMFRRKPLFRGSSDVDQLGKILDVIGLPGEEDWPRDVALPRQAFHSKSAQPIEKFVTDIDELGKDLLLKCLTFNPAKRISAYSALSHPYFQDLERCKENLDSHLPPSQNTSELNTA
Sequence of CDK6/CCND3 (P30281 whole entry partner, species assumed): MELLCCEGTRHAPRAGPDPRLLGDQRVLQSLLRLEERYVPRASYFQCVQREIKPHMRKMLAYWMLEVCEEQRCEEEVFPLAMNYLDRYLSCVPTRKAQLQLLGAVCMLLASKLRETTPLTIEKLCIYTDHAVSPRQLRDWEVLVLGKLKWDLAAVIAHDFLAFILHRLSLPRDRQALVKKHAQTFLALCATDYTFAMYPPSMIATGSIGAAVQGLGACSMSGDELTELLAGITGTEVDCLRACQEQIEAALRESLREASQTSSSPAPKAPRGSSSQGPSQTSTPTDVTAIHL
Sequence of PAK1 (Q13153 whole entry): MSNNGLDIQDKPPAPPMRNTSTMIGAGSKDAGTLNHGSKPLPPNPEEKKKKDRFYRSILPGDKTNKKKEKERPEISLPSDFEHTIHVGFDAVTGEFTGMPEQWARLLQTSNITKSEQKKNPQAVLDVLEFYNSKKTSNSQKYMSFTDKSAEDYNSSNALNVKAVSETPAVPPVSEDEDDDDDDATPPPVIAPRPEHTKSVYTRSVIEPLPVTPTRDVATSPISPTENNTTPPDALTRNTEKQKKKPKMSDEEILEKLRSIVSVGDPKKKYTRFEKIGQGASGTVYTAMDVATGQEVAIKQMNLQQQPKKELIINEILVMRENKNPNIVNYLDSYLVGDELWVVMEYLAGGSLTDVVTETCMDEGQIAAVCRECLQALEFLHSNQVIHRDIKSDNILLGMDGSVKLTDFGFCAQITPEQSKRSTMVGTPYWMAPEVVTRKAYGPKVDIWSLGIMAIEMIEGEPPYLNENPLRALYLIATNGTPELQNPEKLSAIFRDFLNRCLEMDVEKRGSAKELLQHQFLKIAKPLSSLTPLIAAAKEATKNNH
Sequence of MYLK (Q15746 1425-1771): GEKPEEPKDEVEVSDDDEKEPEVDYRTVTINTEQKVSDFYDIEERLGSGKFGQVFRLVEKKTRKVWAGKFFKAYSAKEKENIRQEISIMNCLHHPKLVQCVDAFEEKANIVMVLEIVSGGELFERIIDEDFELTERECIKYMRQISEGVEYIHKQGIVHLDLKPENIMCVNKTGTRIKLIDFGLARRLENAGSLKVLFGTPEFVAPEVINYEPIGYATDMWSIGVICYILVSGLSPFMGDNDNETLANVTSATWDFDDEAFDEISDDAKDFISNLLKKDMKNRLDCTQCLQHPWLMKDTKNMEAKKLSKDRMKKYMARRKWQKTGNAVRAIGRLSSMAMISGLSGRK
Sequence of RPS6KA1 (Q15418 whole entry, species assumed): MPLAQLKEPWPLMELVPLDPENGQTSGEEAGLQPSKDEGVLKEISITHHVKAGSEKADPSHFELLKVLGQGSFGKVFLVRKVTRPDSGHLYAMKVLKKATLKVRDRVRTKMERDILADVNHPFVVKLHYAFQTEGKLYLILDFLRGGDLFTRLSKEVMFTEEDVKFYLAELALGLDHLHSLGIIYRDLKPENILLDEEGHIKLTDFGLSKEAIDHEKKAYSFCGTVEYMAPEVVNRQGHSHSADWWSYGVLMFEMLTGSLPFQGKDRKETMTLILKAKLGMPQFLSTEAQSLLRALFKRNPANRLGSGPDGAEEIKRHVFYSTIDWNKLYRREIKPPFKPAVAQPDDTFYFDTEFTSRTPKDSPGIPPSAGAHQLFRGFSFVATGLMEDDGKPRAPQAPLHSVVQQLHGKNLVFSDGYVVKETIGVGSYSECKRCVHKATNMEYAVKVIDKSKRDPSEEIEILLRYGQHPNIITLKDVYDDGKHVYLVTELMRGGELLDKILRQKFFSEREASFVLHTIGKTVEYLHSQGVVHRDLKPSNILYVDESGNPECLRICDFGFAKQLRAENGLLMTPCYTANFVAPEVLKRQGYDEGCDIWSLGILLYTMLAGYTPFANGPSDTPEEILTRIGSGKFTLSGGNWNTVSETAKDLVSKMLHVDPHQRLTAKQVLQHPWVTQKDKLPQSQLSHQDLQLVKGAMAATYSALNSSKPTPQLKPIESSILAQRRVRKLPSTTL

In the case of `O=C(NCC1CCNCC1)c1nc2c(N3CCc4cc(F)ccc43)ncnc2s1` [Example 58, 7-(5-fluoroindolin-1-yl)-N-(4-piperidylmethyl)thiazolo[5,4-d]pyrimidine-2-carboxamide], the inhibition at 1 µM in [1] turned out to be 6%; in assay [2] it was 15%; in [3] it was 0%; in [4], 9%; in [5], 0%; in assay [6] it was 0%. The inhibition at 1 µM was 36% in assay [7], 24% in assay [8] and 41% in [9].

With `CN(C)CCCNC(=O)c1nc2c(N3CCc4cc(F)ccc43)ncnc2s1` [Example 64, N-[3-(dimethylamino)propyl]-7-(5-fluoroindolin-1-yl)thiazolo[5,4-d]pyrimidine-2-carboxamide], the inhibition at 1 µM was 35% in [1]; 15% in assay [2]; 4% in assay [3]; 0% in assay [4]; 9% in assay [5]; 0% in assay [6]. Moreover, the inhibition at 1 µM in [7] was determined as 49%; in assay [8], 41%; in assay [9] it was 70%.

As to `CC(C)Oc1cc(F)ccc1Nc1ncnc2sc(C(=O)NCC3CCNCC3)nc12` [Example 10, 7-(4-fluoro-2-isopropoxy-anilino)-N-(4-piperidylmethyl)thiazolo[5,4-d]pyrimidine-2-carboxamide], the inhibition at 1 µM in assay [1] amounted to 0%; in assay [2], 10%; in assay [3], 0%; in [4] it was 0%; in [5] it was 3%; in assay [6], 8%. Besides, the inhibition at 1 µM in assay [7] worked out at 30%; in [8], 14%; in assay [9] it was 2%.

The values are drawn from US10669284B2, “Fused thiazolopyrimidine derivatives as MNKS inhibitors” (LIFEARC, priority 2015, dated 2020).
